Measurements: patent US20240360113A1, “AMINOARYL-INTEGRIN AGONISTS COMPOUNDS” (Texas Heart Institute, priority 2021, published 2024)

Columns and labels:
αLβ2/ICAM-1 = molecular target: T1, αLβ2/ICAM-1 (Homo sapiens, UniProt P05107+P20701); assay: Static cell adhesion assay, HSB cells on ICAM-1 (LFA-1; LAD); type: cell-based; settings: RFU of compound / RFU of THI0349, both at the same concentration
T1 construct: The Jurkat (VCAM-1 assays) and HSB (ICAM-1 assays) cell lines were obtained from American Type Culture Collection; endogenous in cells; host or cells: HSB (ATCC)
T1 sequence (P20701 26-1170): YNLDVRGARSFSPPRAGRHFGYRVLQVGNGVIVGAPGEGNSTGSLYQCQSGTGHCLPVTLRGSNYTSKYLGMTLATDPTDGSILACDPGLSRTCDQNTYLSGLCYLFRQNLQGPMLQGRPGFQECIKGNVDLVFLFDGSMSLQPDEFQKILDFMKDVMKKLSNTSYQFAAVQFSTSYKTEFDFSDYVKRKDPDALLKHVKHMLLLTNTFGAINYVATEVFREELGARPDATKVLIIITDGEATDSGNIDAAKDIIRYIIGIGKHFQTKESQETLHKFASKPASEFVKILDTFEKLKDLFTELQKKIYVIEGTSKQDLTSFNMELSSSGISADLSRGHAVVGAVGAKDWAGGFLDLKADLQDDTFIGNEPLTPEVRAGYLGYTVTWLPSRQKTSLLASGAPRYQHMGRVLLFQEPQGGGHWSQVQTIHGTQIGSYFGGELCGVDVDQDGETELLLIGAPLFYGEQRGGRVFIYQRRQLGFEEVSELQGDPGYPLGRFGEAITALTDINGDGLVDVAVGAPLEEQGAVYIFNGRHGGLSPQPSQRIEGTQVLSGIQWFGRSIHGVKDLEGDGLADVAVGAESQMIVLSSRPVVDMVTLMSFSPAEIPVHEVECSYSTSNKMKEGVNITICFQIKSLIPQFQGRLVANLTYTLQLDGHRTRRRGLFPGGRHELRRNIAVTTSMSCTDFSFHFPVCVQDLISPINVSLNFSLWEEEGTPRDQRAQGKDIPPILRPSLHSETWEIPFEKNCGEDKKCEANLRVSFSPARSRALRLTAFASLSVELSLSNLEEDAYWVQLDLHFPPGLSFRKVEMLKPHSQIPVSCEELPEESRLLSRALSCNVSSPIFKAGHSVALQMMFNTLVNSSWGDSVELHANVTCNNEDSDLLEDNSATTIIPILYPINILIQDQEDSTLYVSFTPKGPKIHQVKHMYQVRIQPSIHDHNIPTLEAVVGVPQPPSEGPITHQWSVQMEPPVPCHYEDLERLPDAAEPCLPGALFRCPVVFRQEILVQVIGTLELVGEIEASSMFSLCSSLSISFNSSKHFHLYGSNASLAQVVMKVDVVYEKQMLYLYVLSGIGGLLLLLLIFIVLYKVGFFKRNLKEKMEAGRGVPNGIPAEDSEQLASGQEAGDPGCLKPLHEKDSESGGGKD
T1 sequence (P05107 23-769): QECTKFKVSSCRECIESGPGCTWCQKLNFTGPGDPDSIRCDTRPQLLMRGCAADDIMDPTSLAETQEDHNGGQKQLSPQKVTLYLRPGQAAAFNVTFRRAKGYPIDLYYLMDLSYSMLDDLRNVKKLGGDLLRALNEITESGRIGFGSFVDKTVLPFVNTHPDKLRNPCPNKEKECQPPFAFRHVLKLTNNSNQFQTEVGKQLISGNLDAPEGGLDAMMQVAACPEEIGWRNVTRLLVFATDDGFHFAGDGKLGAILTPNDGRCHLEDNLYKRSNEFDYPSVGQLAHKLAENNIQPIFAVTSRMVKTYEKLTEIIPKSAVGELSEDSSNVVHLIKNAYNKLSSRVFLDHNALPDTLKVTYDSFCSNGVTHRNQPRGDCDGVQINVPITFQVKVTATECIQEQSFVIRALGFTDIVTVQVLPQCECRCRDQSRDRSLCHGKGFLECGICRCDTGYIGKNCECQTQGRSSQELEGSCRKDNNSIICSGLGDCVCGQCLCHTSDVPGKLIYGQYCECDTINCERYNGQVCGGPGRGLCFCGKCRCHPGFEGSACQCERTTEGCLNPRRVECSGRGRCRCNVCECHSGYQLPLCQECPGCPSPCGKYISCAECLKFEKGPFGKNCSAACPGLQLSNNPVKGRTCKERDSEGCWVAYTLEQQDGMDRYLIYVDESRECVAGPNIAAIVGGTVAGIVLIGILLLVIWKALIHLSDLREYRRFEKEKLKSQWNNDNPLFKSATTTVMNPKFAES
Procedure: (§1) For in vitro cell adhesion assays, compounds were dissolved in DMSO to make a series of stock solutions such that a 1:100 dilution in assay buffer would yield the desired final working concentrations in 1% DMSO (vehicle). Human VCAM-1 and ICAM-1 were purchased from R&D Systems (Minneapolis, MN). The Jurkat (VCAM-1 assays) and HSB (ICAM-1 assays) cell lines were obtained from American Type Culture Collection (Manassas, VA) and were maintained in recommended culture media.
(§2) Assays were performed as previously described in Vanderslice et al., (2010), Biochem Biophys Res Commun 400, 619-624; and Vanderslice et al., (2013) J Biol Chem 288, 19414-19428. VCAM-1 or ICAM-1 ligand in 50 μL of 50 mM Tris-HCl (pH 7.4), 150 mM NaCl, (TBS) was added to wells of a 96-well plate and allowed to coat overnight at 4° C. To maximize the window to evaluate agonist activity, a sub-optimal coating concentration of ligand was used, typically 0.5 and 5 μg/mL in 50 μL TBS for VCAM-1 and ICAM-1 respectively. This ligand concentration corresponded approximately to that which would yield <5% adhesion as determined by dose-response curves. Briefly, 2×10^6 cells were labeled for 30 minutes with calcein-AM (Molecular Probes), washed, resuspended in binding buffer, and added to triplicate wells of ligand-coated plates (2×10^5 cells/well) that had been blocked with 2% BSA. After a 30-minute incubation at 37° C., the plates were washed 3 times with binding buffer, the adherent cells were lysed, and fluorescence was measured on a Tecan Safire^2 plate reader. The binding buffer was PBS with 1 mM MgCl2, 50% FBS for α4β1/VCAM-1 assays and PBS with 2 mM MgCl2, 5 mM EGTA, 50% FBS for αLβ2/ICAM-1 assays. EC50 is defined as the concentration of compound required to achieve 50% of the maximal response.
In relation to LAD (Leukocyte Adhesion Deficiency), LFA-1 ratios are determined by dividing the relative fluorescence units (RFU) of each compound at a concentration of 3 μM over that of the reference standard of THI0349, also at 3 μM, (RFU Compound/RFU of THI0349). Log Ps were calculated by either Chemdraw® version 12 (CambridgeSoft) or ACD/Chemsketch® (ACD/Labs).

α4β1/VCAM-1 = molecular target: T2, α4β1/VCAM-1 (Homo sapiens, UniProt P05556+P13612); assay: Static cell adhesion assay, Jurkat cells on VCAM-1 (VLA-4 agonist activity); type: cell-based; settings: for Group against VCAM: EC50 relative to THI0349 (average 11 uM) run on the same plate, Jurkat cells, 50% FBS; for EC50: assay conditions reported herein, in the presence of serum, read-out: EC50 against VCAM
T2 construct: The Jurkat (VCAM-1 assays) and HSB (ICAM-1 assays) cell lines were obtained from American Type Culture Collection; endogenous in cells; host or cells: Jurkat (ATCC)
T2 sequence (P13612 34-1032): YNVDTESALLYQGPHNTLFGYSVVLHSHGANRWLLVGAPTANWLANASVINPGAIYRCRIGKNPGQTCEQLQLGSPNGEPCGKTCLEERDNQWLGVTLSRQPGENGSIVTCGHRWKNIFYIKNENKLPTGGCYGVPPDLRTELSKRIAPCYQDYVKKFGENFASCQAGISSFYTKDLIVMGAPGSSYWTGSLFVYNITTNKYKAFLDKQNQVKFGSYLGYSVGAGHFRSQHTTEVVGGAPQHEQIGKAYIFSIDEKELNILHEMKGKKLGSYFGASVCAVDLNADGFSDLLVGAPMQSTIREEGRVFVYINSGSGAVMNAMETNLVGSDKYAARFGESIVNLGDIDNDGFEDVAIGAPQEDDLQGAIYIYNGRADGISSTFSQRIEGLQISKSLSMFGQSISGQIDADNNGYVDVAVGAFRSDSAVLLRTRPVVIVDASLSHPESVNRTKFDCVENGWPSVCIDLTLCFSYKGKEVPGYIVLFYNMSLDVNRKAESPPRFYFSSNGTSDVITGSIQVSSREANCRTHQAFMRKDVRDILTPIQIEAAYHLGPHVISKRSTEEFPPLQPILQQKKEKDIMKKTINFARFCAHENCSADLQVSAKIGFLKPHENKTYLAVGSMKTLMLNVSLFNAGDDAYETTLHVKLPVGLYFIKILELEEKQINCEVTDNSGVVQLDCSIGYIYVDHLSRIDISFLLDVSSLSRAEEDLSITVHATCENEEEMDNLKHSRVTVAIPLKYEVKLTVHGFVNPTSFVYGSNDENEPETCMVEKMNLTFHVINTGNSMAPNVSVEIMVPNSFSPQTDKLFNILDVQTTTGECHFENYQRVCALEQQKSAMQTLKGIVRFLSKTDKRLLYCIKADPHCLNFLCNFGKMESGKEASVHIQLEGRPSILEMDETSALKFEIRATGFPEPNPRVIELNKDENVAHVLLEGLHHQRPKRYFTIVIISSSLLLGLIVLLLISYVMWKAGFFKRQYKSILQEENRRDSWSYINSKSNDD
T2 sequence (P05556 21-798): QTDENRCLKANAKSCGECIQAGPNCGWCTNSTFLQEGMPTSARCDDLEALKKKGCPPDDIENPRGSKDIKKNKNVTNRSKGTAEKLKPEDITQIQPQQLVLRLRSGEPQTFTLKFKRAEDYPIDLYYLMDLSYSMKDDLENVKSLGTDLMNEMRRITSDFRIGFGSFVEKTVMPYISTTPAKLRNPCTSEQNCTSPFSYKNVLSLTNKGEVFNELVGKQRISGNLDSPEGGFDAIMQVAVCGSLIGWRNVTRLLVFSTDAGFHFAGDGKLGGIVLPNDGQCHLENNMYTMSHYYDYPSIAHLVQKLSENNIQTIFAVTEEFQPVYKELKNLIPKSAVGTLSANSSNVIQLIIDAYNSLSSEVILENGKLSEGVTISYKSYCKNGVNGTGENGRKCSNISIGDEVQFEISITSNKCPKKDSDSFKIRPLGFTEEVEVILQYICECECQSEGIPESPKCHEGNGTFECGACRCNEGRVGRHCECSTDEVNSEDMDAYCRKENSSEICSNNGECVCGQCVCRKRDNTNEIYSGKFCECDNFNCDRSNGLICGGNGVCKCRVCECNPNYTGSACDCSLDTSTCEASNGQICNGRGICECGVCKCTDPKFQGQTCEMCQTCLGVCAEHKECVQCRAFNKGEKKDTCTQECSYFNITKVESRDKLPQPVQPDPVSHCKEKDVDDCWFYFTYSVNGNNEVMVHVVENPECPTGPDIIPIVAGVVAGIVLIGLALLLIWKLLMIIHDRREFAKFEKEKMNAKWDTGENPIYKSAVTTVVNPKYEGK
Procedure: as §1, §2

Row | LAD Raw Fluorescence Units against LFA-1; Dose 3 µM; Ratio of raw counts Compound/THI0349 (αLβ2/ICAM-1) | SMILES | Group against VCAM (α4β1/VCAM-1) | EC50 (α4β1/VCAM-1)
1 | 0.1 | CCOC(=O)c1coc(N(Cc2cccs2)Cc2cccs2)n1 [Compound 13, ethyl 2-(bis(thiophen-2-ylmethyl)amino)oxazole-4-carboxylate] | I (Group I maintains at least the same potency or better up to more than twice that of the EC50 of THI0349 ran on the same plate) | –
2 | 1.0 | CCOC(=O)c1coc(N(Cc2cccc(OC)c2)Cc2cccc(OC)c2)n1 [Compound 14, ethyl 2-(bis(3-methoxybenzyl)amino)oxazole-4-carboxylate] | I (Group I maintains at least the same potency or better up to more than twice that of the EC50 of THI0349 ran on the same plate) | –
3 | 0.52 | CCOC(=O)c1coc(N(Cc2ccc(OC)cc2)Cc2ccc(OC)cc2)n1 [Compound 15, ethyl 2-(bis(4-methoxybenzyl)amino)oxazole-4-carboxylate] | III (Group III more than five times the EC50 of THI0349) | –
4 | 0.49 | CCOC(=O)c1coc(N(Cc2cccc(OCCOC)c2)Cc2cccc(OCCOC)c2)n1 [Compound 16, ethyl 2-(bis(3-(2-methoxyethoxy)benzyl)amino)oxazole-4-carboxylate] | II (Group II is more than twice that of THI0349 but less than five times THI0349's EC50) | –
5 | 0.17 | COc1cccc(CNC(=O)c2coc(N(Cc3cccc(OC)c3)Cc3cccc(OC)c3)n2)c1 [Compound 18, 2-(bis(3-methoxybenzyl)amino)-N-(3-methoxybenzyl)oxazole-4-carboxamide] | II (Group II is more than twice that of THI0349 but less than five times THI0349's EC50) | –
6 | 0.12 | COc1ccc(CCNC(=O)c2coc(N(Cc3cccc(OC)c3)Cc3cccc(OC)c3)n2)cc1 [Compound 19, 2-(bis(3-methoxybenzyl)amino)-N-(4-methoxyphenethyl)oxazole-4-carboxamide] | II (Group II is more than twice that of THI0349 but less than five times THI0349's EC50) | –
7 | 0.19 | COc1ccc(CCCNC(=O)c2coc(N(Cc3cccc(OC)c3)Cc3cccc(OC)c3)n2)cc1 [Compound 20, 2-(bis(3-methoxybenzyl)amino)-N-(3-(4-methoxyphenyl)propyl)oxazole-4-carboxamide] | II (Group II is more than twice that of THI0349 but less than five times THI0349's EC50) | –
8 | – | COc1ccc(CCNC(=O)c2csc(N(Cc3cccc(OC)c3)Cc3cccc(OC)c3)n2)cc1 [Compound 21, 2-(bis(3-methoxybenzyl)amino)-N-(4-methoxyphenethyl)thiazole-4-carboxamide] | I (Group I maintains at least the same potency or better up to more than twice that of the EC50 of THI0349 ran on the same plate) | –
9 | 0.69 | COc1ccc(CCCNC(=O)c2cnc(N(Cc3cccc(OC)c3)Cc3cccc(OC)c3)o2)cc1 [Compound 22, 2-(bis(3-methoxybenzyl)amino)-N-(3-(4-methoxyphenyl)propyl)oxazole-5-carboxamide] | I (Group I maintains at least the same potency or better up to more than twice that of the EC50 of THI0349 ran on the same plate) | –
10 | 0.85 | COc1ccc(CCCNC(=O)c2csc(N(Cc3cccc(OC)c3)Cc3cccc(OC)c3)n2)cc1 [Compound 23, 2-(bis(3-methoxybenzyl)amino)-N-(3-(4-methoxyphenyl)propyl)thiazole-4-carboxamide] | I (Group I maintains at least the same potency or better up to more than twice that of the EC50 of THI0349 ran on the same plate) | –
11 | – | CCOC(=O)c1csc(N(Cc2cccc(OC)c2)Cc2ccc3nc[nH]c3c2)n1 [Compound 120, ethyl 2-(((1H-benzo[d]imidazol-6-yl)methyl)(3-methoxybenzyl)amino)thiazole-4-carboxylate] | III (Group III more than five times the EC50 of THI0349) | –
12 | – | COc1cccc(CN(Cc2cccc(OC)c2)c2nc(COC3CCOCC3)cs2)c1 [Compound 122, N,N-bis(3-methoxybenzyl)-4-((tetrahydro-2H-pyran-4-yloxy)methyl)thiazol-2-amine] | II (Group II is more than twice that of THI0349 but less than five times THI0349's EC50) | –
13 | – | COc1cccc(CN(Cc2cccc(OC)c2)c2nc(COC3COC3)cs2)c1 [Compound 123, N,N-bis(3-methoxybenzyl)-4-((oxetan-3-yloxy)methyl)thiazol-2-amine] | II (Group II is more than twice that of THI0349 but less than five times THI0349's EC50) | –
14 | – | COc1cccc(CN(Cc2cccc(OC)c2)c2nc(COCC3CCOCC3)cs2)c1 [Compound 124, N,N-bis(3-methoxybenzyl)-4-(((tetrahydro-2H-pyran-4-yl)methoxy)methyl)thiazol-2-amine] | II (Group II is more than twice that of THI0349 but less than five times THI0349's EC50) | –
15 | – | COc1cccc(CN(Cc2cccc(OC)c2)c2nc(CN(C)C3CCOCC3)cs2)c1 [Compound 125, N,N-bis(3-methoxybenzyl)-4-((methyl(tetrahydro-2H-pyran-4-yl)amino)methyl)thiazol-2-amine] | II (Group II is more than twice that of THI0349 but less than five times THI0349's EC50) | –
16 | – | COc1cccc(CN(Cc2cccc(OC)c2)c2nc(CNC3CCN(C)CC3)cs2)c1 [Compound 126, N,N-bis(3-methoxybenzyl)-4-((1-methylpiperidin-4-ylamino)methyl)thiazol-2-amine] | III (Group III more than five times the EC50 of THI0349) | –
17 | – | COc1cccc(CN(Cc2cccc(OC)c2)c2nc(CNC3CCOCC3)cs2)c1 [Compound 128, N,N-bis(3-methoxybenzyl)-4-((tetrahydro-2H-pyran-4-ylamino)methyl)thiazol-2-amine] | I (Group I maintains at least the same potency or better up to more than twice that of the EC50 of THI0349 ran on the same plate) | –
18 | – | COc1cccc(CN(Cc2cccc(OC)c2)c2nc(COCC3COC3)cs2)c1 [Compound 129, N,N-bis(3-methoxybenzyl)-4-((oxetan-3-ylmethoxy)methyl)thiazol-2-amine] | II (Group II is more than twice that of THI0349 but less than five times THI0349's EC50) | –
19 | – | COc1cccc(CN(Cc2cccc(OC)c2)c2nc(CNCC3CCN(C)CC3)cs2)c1 [Compound 130, N,N-bis(3-methoxybenzyl)-4-(((1-methylpiperidin-4-yl)methylamino)methyl)thiazol-2-amine] | III (Group III more than five times the EC50 of THI0349) | –
20 | – | COc1cccc(CN(Cc2cccc(OC)c2)c2nc(COCCOC3CCOCC3)cs2)c1 [Compound 131, N,N-bis(3-methoxybenzyl)-4-((2-(tetrahydro-2H-pyran-4-yloxy)ethoxy)methyl)thiazol-2-amine] | I (Group I maintains at least the same potency or better up to more than twice that of the EC50 of THI0349 ran on the same plate) | –
21 | – | CCCC[C@@H](COC(=O)N(Cc1cccs1)Cc1cccs1)NC(=O)N[C@@H](CC(=O)OC)c1ccc2c(c1)OCO2 [THI0019, reference compound] | – | 33 µM
22 | – | O=C(OCCOCCOCCOC(=O)N(Cc1cccs1)Cc1cccs1)N(Cc1cccs1)Cc1cccs1 [THI0349, reference compound] | – | 11 µM
